Source: patent US9029377B2, “Platelet-activating factor receptor antagonists” (Merck Sharp & Dohme Corp., priority 2009, dated 2015)

Molecular target: PAFR (Homo sapiens, UniProt P25105)
Assay: PAF Binding Assay (PAFR binding)

Sequence of PAFR (P25105 whole entry): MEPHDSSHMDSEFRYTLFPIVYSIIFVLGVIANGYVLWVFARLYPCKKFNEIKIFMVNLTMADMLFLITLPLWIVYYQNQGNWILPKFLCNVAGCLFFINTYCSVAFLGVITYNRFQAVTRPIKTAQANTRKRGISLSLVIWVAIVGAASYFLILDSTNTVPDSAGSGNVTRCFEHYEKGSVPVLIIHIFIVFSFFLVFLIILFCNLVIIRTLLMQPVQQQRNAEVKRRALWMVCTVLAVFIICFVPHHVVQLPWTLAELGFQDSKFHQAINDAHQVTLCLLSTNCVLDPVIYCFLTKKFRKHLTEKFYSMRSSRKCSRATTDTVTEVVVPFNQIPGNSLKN

| IC50 [µM] | Compound |
| --- | --- |
| 0.022 | CCc1cc(-c2cnc3ccnn3c2)cc(S(=O)(=O)N[C@H]2CCC[C@@H](n3cnnc3)C2)c1 [Compound 3Bax, 3-ethyl-5-pyrazolo[1,5-a]pyrimidin-6-yl-N-[(1S,3R)-3-(4H-1,2,4-triazol-4-yl)cyclohexyl]benzenesulfonamide] |
| 0.007 | O=S(=O)(N[C@H]1CCC[C@@H](n2cnnc2)C1)c1ccc(-c2ccc(OCC(F)(F)F)nc2)c(F)c1 [Compound 2Ef, 3-fluoro-N-[(1S,3R)-3-(4H-1,2,4-triazol-4-yl)cyclohexyl]-4-[6-(2,2,2-trifluoroethoxy)pyridin-3-yl]benzenesulfonamide] |
| 0.051 | Cc1nncn1[C@@H]1CCC[C@H](NS(=O)(=O)c2ccc(C(C)(C)C)cc2)C1 [Compound 2Np, 4-tert-butyl-N-[(1S,3R)-3-(3-methyl-4H-1,2,4-triazol-4-yl)cyclohexyl]benzenesulfonamide] |
| 0.0055 | CCc1cc(-c2noc(C3CC3)n2)ccc1S(=O)(=O)N[C@H]1CCC[C@@H](n2cnnc2C(F)(F)F)C1 [Compound 2Aa, 4-(5-cyclopropyl-1,2,4-oxadiazol-3-yl)-2-ethyl-N-{(1S,3R)-3-[3-(trifluoromethyl)-4H-1,2,4-triazol-4-yl]cyclohexyl}benzenesulfonamide] |
| 0.0019 | Cc1nncn1[C@@H]1CCC[C@H](NS(=O)(=O)c2ccc(-c3ccc(OC(F)F)cc3)c(F)c2)C1 [Compound 2Fc, 4′-(difluoromethoxy)-2-fluoro-N-[(1S,3R)-3-(3-methyl-4H-1,2,4-triazol-4-yl)cyclohexyl]biphenyl-4-sulfonamide] |
| 0.03 | Cc1nncn1[C@@H]1CCC[C@H](NS(=O)(=O)c2ccc(-n3ccc(C4CC4)n3)cc2)C1 [Compound 2Ns, 4-(3-cyclopropyl-1H-pyrazol-1-yl)-N-[(1S,3R)-3-(3-methyl-4H-1,2,4-triazol-4-yl)cyclohexyl]benzenesulfonamide] |
| 0.0073 | 4-(5-cyclopropyl-1,2,4-oxadiazol-3-yl)-N-[(1R,5S)-3,3-difluoro-5-(4H-1,2,4-triazol-4-yl)cyclohexyl]-3-ethylbiphenyl-4-sulfonamide [Compound 2Cy] |
| 0.0042 | COc1ccc(-c2cc(C(F)(F)F)cc(S(=O)(=O)N[C@H]3CCC[C@@H](n4cnnc4)C3)c2)cn1 [Compound 3Af, 3-(6-methoxypyridin-3-yl)-N-[(1S,3R)-3-(4H-1,2,4-triazol-4-yl)cyclohexyl]-5-(trifluoromethyl)benzenesulfonamide] |
| 0.0095 | CCc1cc(-c2cccnc2OCC(F)(F)F)cc(S(=O)(=O)N[C@H]2CCC[C@@H](n3cnnc3)C2)c1 [Compound 3Bam, 3-ethyl-N-[(1S,3R)-3-(4H-1,2,4-triazol-4-yl)cyclohexyl]-5-[2-(2,2,2-trifluoroethoxy)pyridin-3-yl]benzenesulfonamide] |
| 0.007 | O=S(=O)(N[C@H]1CCC[C@@H](n2cnnc2)C1)c1cc(-c2cccc3ccsc23)cc(C(F)(F)F)c1 [Compound 3Aq, 3-(1-benzothien-7-yl)-N-[(1S,3R)-3-(4H-1,2,4-triazol-4-yl)cyclohexyl]-5-(trifluoromethyl)benzenesulfonamide] |
| 0.157 | CC(C)(C)c1cccc(S(=O)(=O)N[C@H]2CCC[C@@H](n3cnnc3)C2)c1 [Compound 2Mf, 3-tert-butyl-N-[(1S,3R)-3-(4H-1,2,4-triazol-4-yl)cyclohexyl]benzenesulfonamide] |
| 0.0045 | COc1ncccc1-c1cc(C(F)(F)F)cc(S(=O)(=O)N[C@H]2CCC[C@@H](n3cnnc3)C2)c1 [Compound 3Ag, 3-(2-methoxypyridin-3-yl)-N-[(1S,3R)-3-(4H-1,2,4-triazol-4-yl)cyclohexyl]-5-(trifluoromethyl)benzenesulfonamide] |
| 0.013 | O=S(=O)(N[C@H]1CCC[C@@H](n2cnnc2)C1)c1cc(-c2cccc3nccn23)cc(C(F)(F)F)c1 [Compound 3Aaa, 3-imidazo[1,2-a]-pyridin-5-yl-N-[(1S,3R)-3-(4H-1,2,4-triazol-4-yl)cyclohexyl]-5-(trifluoromethyl)benzenesulfonamide] |
| 0.39 | CCc1cc(-c2ncns2)ccc1S(=O)(=O)N[C@H]1CCC[C@@H](n2cnnc2)C1 [Compound 2Aaz, 2-ethyl-4-(1,2,4-thiadiazol-5-yl)-N-[(1S,3R)-3-(4H-1,2,4-triazol-4-yl)cyclohexyl]benzenesulfonamide] |
| 0.0051 | CC(C)Oc1ccc(-c2ccc(S(=O)(=O)N[C@H]3CCC[C@@H](n4cnnc4)C3)cc2F)cn1 [Compound 2Ee, 3-fluoro-4-(6-isopropoxypyridin-3-yl)-N-[(1S,3R)-3-(4H-1,2,4-triazol-4-yl)cyclohexyl]benzenesulfonamide] |
| 0.033 | CCc1cc(-c2cccc(F)c2)ccc1S(=O)(=O)N[C@H]1CCC[C@@H](n2cnnc2)C1 [2 Am, 3-ethyl-3′-fluoro-N-[(1S,3R)-3-(4H-1,2,4-triazol-4-yl)cyclohexyl]benzenesulfonamide] |

| IC50 [µM] | Compound |
| --- | --- |
| 0.03 | CCc1cc(-c2ccc(OC(F)(F)F)cc2C)ccc1S(=O)(=O)N[C@H]1CCC[C@@H](n2cnnc2)C1 [Compound 2Abl, 3-ethyl-2′-methyl-N-[(1S,3R)-3-(4H-1,2,4-triazol-4-yl)cyclohexyl]-4′-(trifluoromethoxy)biphenyl-4-sulfonamide] |
| 0.041 | CCc1cc(-c2ncc(COC)s2)ccc1S(=O)(=O)N[C@H]1CCC[C@@H](n2cnnc2)C1 [Compound 2Aba, 2-ethyl-4-[5-(methoxymethyl)-1,3-thiazol-2-yl]-N-[(1S,3R)-3-(4H-1,2,4-triazol-4-yl)cyclohexyl]benzenesulfonamide] |
| 0.044 | CCc1cc(-c2ccccc2OC(F)(F)F)ccc1S(=O)(=O)N[C@H]1CCC[C@@H](n2cnnc2)C1 [Compound 2Aaa, 3-ethyl-N-[(1S,3R)-3-(4H-1,2,4-triazol-4-yl)cyclohexyl]2′-(trifluoromethoxy)biphenyl-4-sulfonamide] |
| 0.0033 | O=S(=O)(N[C@H]1CCC[C@@H](n2cnnc2)C1)c1cc(-c2ccc3ncccc3c2)cc(C(F)(F)F)c1 [Compound 3Ap, 3-quinolin-6-yl-N-[(1S,3R)-3-(4H-1,2,4-triazol-4-yl)cyclohexyl]-5-(trifluoromethyl)benzenesulfonamide] |
| 0.001 | O=S(=O)(N[C@H]1CCC[C@@H](n2cnnc2)C1)c1cc(F)cc(-c2cccc3cccnc23)c1 [Compound 3Fc, 3-fluoro-5-quinolin-8-yl-N-[(1S,3R)-3-(4H-1,2,4-triazol-4-yl)cyclohexyl]benzenesulfonamide] |
| 0.024 | CCc1cc(-c2ccc(F)c(F)c2)ccc1S(=O)(=O)N[C@H]1CCC[C@@H](n2cnnc2)C1 [Compound 2Aw, 3-ethyl-3′,4′-difluoro-N-[(1S,3R)-3-(4H-1,2,4-triazol-4-yl)cyclohexyl]biphenyl-4-sulfonamide] |
| 0.0044 | O=S(=O)(N[C@@H]1C[C@H](n2cnnc2)CC(F)(F)C1)c1ccc(-c2ccc(OCC(F)(F)F)nc2)c(F)c1 [2 Gf, N-[(1R,5S)-3,3-difluoro-5-(4H-1,2,4-triazol-4-yl)cyclohexyl]-3-fluoro-4-[6-(2,2,2-trifluoroethoxy)pyridin-3-yl]benzenesulfonamide] |
| 0.012 | 4′-(difluoromethoxy)-N-[(1R,5S)-3,3-difluoro-5-(4H-1,2,4-triazol-4-yl)cyclohexyl]-2-ethylbenzenesulfonamide [Compound 2Caf] |
| 0.159 | CCc1cc(-c2cccnc2)ccc1S(=O)(=O)N[C@H]1CCC[C@@H](n2cnnc2)C1 [Compound 2Ao, 2-ethyl-4-pyridin-3-yl-N-[(1S,3R)-3-(4H-1,2,4-triazol-4-yl)cyclohexyl]benzenesulfonamide] |
| 0.02 | O=S(=O)(N[C@H]1CCC[C@@H](n2cnnc2)C1)c1cc(-c2cncc3ccccc23)cc(C(F)(F)F)c1 [3 Ay, 3-isoquinolin-4-yl-N-[(1S,3R)-3-(4H-1,2,4-triazol-4-yl)cyclohexyl]-5-(trifluoromethyl)benzenesulfonamide] |
| 0.015 | CC(C)Oc1ccc(-c2ccc(S(=O)(=O)N[C@H]3CCC[C@@H](n4cnnc4)C3)cc2F)cc1 [Compound 2Ed, 2-fluoro-4′-isopropoxy-N-[(1S,3R)-3-(4H-1,2,4-triazol-4-yl)cyclohexyl]biphenyl-4-sulfonamide] |
| 0.002 | Cc1nncn1[C@@H]1CCC[C@H](NS(=O)(=O)c2ccc(-c3ccc(OCC(F)(F)F)nc3)cc2OC(F)(F)F)C1 [Compound 2Bbe, N-[(1S,3R)-3-(3-methyl-4H-1,2,4-triazol-4-yl)cyclohexyl]-4-[6-(2,2,2-trifluoroethoxy)pyridin-3-yl]-2-(trifluoromethoxy)benzenesulfonamide] |
| 0.012 | O=S(=O)(N[C@H]1CCC[C@@H](n2cnnc2)C1)c1cc(F)c(-c2ccc(OC(F)(F)F)cc2)cc1F [Compound 2Mo, 2,5-difluoro-N-[(1S,3R)-3-(4H-1,2,4-triazol-4-yl)cyclohexyl]-4′-(trifluoromethoxy)biphenyl-4-sulfonamide] |
| 0.0049 | O=S(=O)(N[C@H]1CCC[C@@H](n2cnnc2)C1)c1cc(-c2ccc3ccc(OCC(F)(F)F)nc3c2)cc(C(F)(F)F)c1 [Compound 3Aag, N-[(1S,3R)-3-(4H-1,2,4-triazol-4-yl)cyclohexyl]-3-[2-(2,2,2-trifluoroethoxy)quinolin-7-yl]-5-(trifluoromethyl)benzenesulfonamide] |
| 0.119 | CCc1cc(-c2ccc(C)nc2)ccc1S(=O)(=O)N[C@H]1CCC[C@@H](n2cnnc2)C1 [Compound 2Ai, 2-ethyl-4-(6-methylpyridin-3-yl)-N-[(1S,3R)-3-(4H-1,2,4-triazol-4-yl)cyclohexyl]benzenesulfonamide] |

| Compound | IC50 [µM] |
| --- | --- |
| 3-(2-cyclopropylpyrazolo[1,5-a]pyrimidin-7-yl)-N-[(1R,5S)-3,3-difluoro-5-(3-methyl-4H-1,2,4-triazol-4-yl)cyclohexyl]-5-(trifluoromethyl)benzenesulfonamide [Compound 9Af] | 0.0051 |
| 3-[1,2,4]triazolo[1,5-a]pyrimidin-7-yl-N-[(1R,5S)-3,3-difluoro-5-(3-methyl-4H-1,2,4-triazol-4-yl)cyclohexyl]-5-(trifluoromethyl)benzenesulfonamide [Compound 9Ac] | 0.086 |
| Cc1nncn1[C@H]1C[C@@H](NS(=O)(=O)c2ccc(OCCCCF)cc2)CC(F)(F)C1 [Compound 2Qad, N-[(1R,5S)-3,3-difluoro-5-(3-methyl-4H-1,2,4-triazol-4-yl)cyclohexyl]-4-(4-fluorobutoxy)-benzenesulfonamide] | 0.0088 |
